Test in all cases: animal or person
Common to all, as to assay type: in vivo

In one assay the test system is Mice. Particulars: Mus musculus, po; for ED50: read-out: MES test ED50.
For assay [1], the system named is Male Sprague-Dawley rats. The conditions noted are these: Rattus norvegicus, iv, read-out: Intervention Protection %.
Assay [2] deals with Male Sprague-Dawley rats. Particulars: for ED50: Rattus norvegicus, read-out: Prevention ED50; for ED50 / Prevention Peak Time: ip; for Prevention Peak Time / Prevention Protection %: rat, in vivo.
[3] abbreviates: read-out: MES test Protection %.

SMILES strings stand for the structures.

For `C[C@@H](OC(N)=O)[C@H](OC(N)=O)c1c(Cl)cccc1Cl` [Example 290, 1-(2,6-dichlorophenyl)-(R)-1-carbamoyloxypropyl-(R)-2-carbamate], the responders at 30 mg/kg with Mice (setting [3]) was 33.3%. Turning to `COCO[C@@H](c1cccc(Cl)c1Cl)[C@H](C)OC(N)=O` [Example 68, 1-(2,3-dichlorophenyl)-(S)-1-methoxymethoxypropyl-(S)-2-carbamate], the responders at 46 mg/kg in the assay on Male Sprague-Dawley rats [1] was 40%. In addition, the responders at 90 mg/kg in the assay on Mice (setting [3]) was determined as 100%. As for `C[C@@H](OC(N)=O)[C@@H](OC(N)=O)c1ccccc1Cl` [Example 294, 1-(2-chlorophenyl)-(S)-1-carbamoyloxypropyl-(R)-2-carbamate], the responders at 90 mg/kg in the assay with Mice (setting [3]) turned out to be 66.6%.

On to `COCO[C@@H](C)[C@@H](OC(N)=O)c1ccccc1I` [Example 282, 1-(2-iodophenyl)-(S)-2-methoxymethoxypropyl-1-carbamate], for which the responders at 90 mg/kg with Mice (setting [3]) turned out to be 33.3%. Same read-out and setting: the result for `CO[C@@H](c1cccc(I)c1)[C@@H](OC(N)=O)C(C)C` [Example 177, 1-(3-iodophenyl)-(S)-1-methoxy-3-methyl-butyl-(S)-2-carbamate] reads 66.6%. Turning to `C[C@H](OC(N)=O)[C@@H](OC(N)=O)c1c(Cl)cccc1Cl` [Example 267, 1-(2,6-dichlorophenyl)-(S)-1-carbamoyloxypropyl-(S)-2-carbamate], the responders at 50 mg/kg with Mice (setting [3]) came to 16.6%. Turning to `COCO[C@@H](c1ccccc1Cl)[C@@H](C)OC(N)=O` [Example 72, 1-(2-chlorophenyl)-(S)-1-methoxymethoxypropyl-(R)-2-carbamate], the responders at 46 mg/kg in the assay on Male Sprague-Dawley rats [1] stood at 50%. Further, the responders at 90 mg/kg with Mice (setting [3]) is 100%. With `CCCC[C@@H](OC(N)=O)[C@H](OC)c1ccc(F)cc1` [Example 213, 1-(4-fluorophenyl)-(R)-1-methoxyhexyl-(R)-2-carbamate], the responders at 90 mg/kg in the assay on Mice (setting [3]) was 33.3%. In the case of `COCO[C@@H](C)[C@@H](OC(N)=O)c1ccccc1F` [Example 284, 1-(2-fluorophenyl)-(S)-2-methoxymethoxypropyl-1-carbamate], the responders at 90 mg/kg in the assay with Mice (setting [3]) is 33.3%. On to `C[C@H](OC(N)=O)[C@@H](OC(N)=O)c1c(F)cccc1Cl` [Example 286, 1-(2-chloro-6-fluorophenyl)-(S)-1-carbamoyloxypropyl-(S)-2-carbamate], for which, in the assay on Mice (setting [3]), the responders at 90 mg/kg worked out at 33.3%. On to `CCCC[C@H](OC(N)=O)[C@@H](OCOC)c1ccccc1Cl` [Example 11, 1-(2-chlorophenyl)-(S)-1-methoxymethoxyhexyl-(S)-2-carbamate], for which the responders at 46 mg/kg in the assay with Male Sprague-Dawley rats [1] was found to be 66.7%. In the assay on Mice (setting [3]), the responders at 90 mg/kg was found to be 100%. For `CO[C@H](c1ccccc1Cl)[C@H](C)OC(N)=O` [Example 194, 1-(2-chlorophenyl)-(R)-1-methoxypropyl-(S)-2-carbamate], the responders at 46 mg/kg in the assay with Male Sprague-Dawley rats [1] was determined as 83.3%. In the assay with Mice (setting [3]), the responders at 90 mg/kg turned out to be 100%. On to `COCO[C@@H](c1ccccc1Cl)[C@@H](OC(N)=O)C(C)C` [Example 10, 1-(2-chlorophenyl)-(S)-1-methoxymethoxy-3-methyl-butyl-(S)-2-carbamate], for which the responders at 46 mg/kg in the assay with Male Sprague-Dawley rats [1] worked out at 66.7%. Also, in the assay on Mice (setting [3]), the responders at 90 mg/kg came out at 100%. Take `COCO[C@H](c1c(Cl)cccc1Cl)[C@@H](C)OC(N)=O` [Example 107, 1-(2,6-dichlorophenyl)-(R)-1-methoxymethoxypropyl-(R)-2-carbamate]: the responders at 30 mg/kg with Mice (setting [3]) was determined as 33.3%. As for `CO[C@@H](c1ccccc1Cl)[C@@H](C)OC(N)=O` [Example 195, 1-(2-chlorophenyl)-(S)-1-methoxypropyl-(R)-2-carbamate], in the assay on Male Sprague-Dawley rats [1], the responders at 46 mg/kg was 50%. Besides, in the assay on Mice (setting [3]), the responders at 90 mg/kg worked out at 100%. Regarding `CC[C@@H](OC(N)=O)[C@H](OC)c1ccc(Cl)cc1Cl` [Example 232, 1-(2,4-dichlorophenyl)-(R)-1-methoxybutyl-(R)-2-carbamate], the responders at 90 mg/kg in the assay on Mice (setting [3]) stood at 33.3%. For the compound `COCO[C@H](COC(N)=O)c1ccccc1I` [Example 278, 1-(2-iodophenyl)-(S)-1-methoxymethoxyethyl-2-carbamate], the responders at 30 mg/kg in the assay with Mice (setting [3]) was 33.3%. With `COCO[C@@H](C)[C@@H](OC(N)=O)c1ccccc1Cl` [Example 274, 1-(2-chlorophenyl)-(S)-2-methoxymethoxypropyl-(S)-1-carbamate], the responders at 46 mg/kg in the assay on Male Sprague-Dawley rats [1] was 33.3%. Further, the responders at 90 mg/kg in the assay on Mice (setting [3]) is 100%.

Take `C[C@@H](OC(N)=O)[C@H](OC(N)=O)c1c(F)cccc1F` [Example 292, 1-(2,6-difluorophenyl)-(R)-1-carbamoyloxypropyl-(R)-2-carbamate]: the responders at 56 mg/kg in the assay on Mice (setting [3]) amounted to 33.3%. In the case of `CO[C@@H](C)[C@@H](OC(N)=O)c1ccccc1I` [Example 283, 1-(2-iodophenyl)-(S)-2-methoxypropyl-1-carbamate], the responders at 90 mg/kg with Mice (setting [3]) stood at 100%. The ED50 is the dose that gives a 50% effect, or the effect in half of the subjects. Consider `COCO[C@@H](c1ccccc1I)[C@H](C)OC(N)=O` [Example 20, 1-(2-iodophenyl)-(S)-1-methoxymethoxypropyl-(S)-2-carbamate], for which the ED50 came to 25.9 mg/kg in the assay on Male Sprague-Dawley rats [2] and 29.5 mg/kg in the assay with Mice. Also, the “Prevention Peak Time” value in the assay with Male Sprague-Dawley rats [2] was 1 h. Besides, the responders at 46 mg/kg in the assay on Male Sprague-Dawley rats [1] amounted to 16.7%. With `C[C@H](OC(N)=O)[C@@H](OC(N)=O)c1ccccc1I` [Example 259, 1-(2-iodophenyl)-(S)-1-carbamoyloxypropyl-(S)-2-carbamate], the responders at 90 mg/kg in the assay on Mice (setting [3]) was 66.6%. Turning to `CC[C@H](OC(N)=O)[C@@H](OC)c1ccccc1I` [Example 151, 1-(2-iodophenyl)-(S)-1-methoxybutyl-(S)-2-carbamate], in the assay with Male Sprague-Dawley rats [2], the “Prevention Protection %” value is “^a60 (100%)”. In addition, the responders at 46 mg/kg in the assay with Male Sprague-Dawley rats [1] came to 100%. In the assay on Mice, the ED50 turned out to be 37 mg/kg.

`COCO[C@@H](c1ccccc1I)[C@@H](OC(N)=O)C(C)C` [Example 36, 1-(2-iodophenyl)-(S)-1-methoxymethoxy-3-methyl-butyl-(S)-2-carbamate]: the responders at 90 mg/kg in the assay on Mice (setting [3]) turned out to be 100%.

Turning to `C[C@H](OC(N)=O)[C@H](OC(N)=O)c1ccccc1Cl` [Example 295, 1-(2-chlorophenyl)-(R)-1-carbamoyloxypropyl-(S)-2-carbamate], the responders at 90 mg/kg in the assay with Mice (setting [3]) amounted to 100%. Take `COCO[C@@H](c1ccccc1Cl)[C@H](C)OC(N)=O` [Example 1, 1-(2-chlorophenyl)-(S)-1-methoxymethoxypropyl-(S)-2-carbamate]: in the assay with Male Sprague-Dawley rats [2], the ED50 is 26.6 mg/kg and the “Prevention Peak Time” value amounted to 0.5 h. Moreover, the responders at 46 mg/kg in the assay with Male Sprague-Dawley rats [1] is 50%. In addition, the ED50 in the assay with Mice was 21.6 mg/kg. For `CO[C@@H](c1ccc(Cl)cc1Cl)[C@H](C)OC(N)=O` [Example 183, 1-(2,4-dichlorophenyl)-(S)-1-methoxypropyl-(S)-2-carbamate], in the assay with Male Sprague-Dawley rats [1], the responders at 46 mg/kg was determined as 100%. Further, in the assay on Mice (setting [3]), the responders at 90 mg/kg worked out at 100%. With `CC(OC(N)=O)C(OC(N)=O)c1ccccc1Cl` (stereo not shown) [Example 251, 1-(2-chlorophenyl)-2-carbamoyloxypropyl-1-carbamate], the responders at 100 mg/kg in the assay with Mice (setting [3]) worked out at 33.3%. For the compound `CCCC[C@H](OC(N)=O)[C@@H](OCOC)c1ccccc1I` [Example 44, 1-(2-iodophenyl)-(S)-1-methoxymethoxyhexyl-(S)-2-carbamate], the responders at 90 mg/kg in the assay with Mice (setting [3]) was 100%.

As to `CCCC[C@H](OC(N)=O)[C@@H](OC)c1ccccc1I` [Example 167, 1-(2-iodophenyl)-(S)-1-methoxyhexyl-(S)-2-carbamate], the responders at 90 mg/kg in the assay with Mice (setting [3]) was found to be 33.3%. For `CO[C@@H](C)[C@@H](OC(N)=O)c1ccccc1Cl` [Example 275, 1-(2-chlorophenyl)-(S)-2-methoxypropyl-(S)-1-carbamate], the responders at 90 mg/kg in the assay on Mice (setting [3]) came to 100%. Consider `CO[C@@H](c1cccc(Cl)c1Cl)[C@H](C)OC(N)=O` [Example 191, 1-(2,3-dichlorophenyl)-(S)-1-methoxypropyl-(S)-2-carbamate], for which, in the assay with Male Sprague-Dawley rats [1], the responders at 46 mg/kg was 100%. The responders at 90 mg/kg in the assay with Mice (setting [3]) was found to be 100%.

Regarding `COCO[C@H](c1ccccc1Cl)[C@H](C)OC(N)=O` [Example 71, 1-(2-chlorophenyl)-(R)-1-methoxymethoxypropyl-(S)-2-carbamate], the responders at 46 mg/kg in the assay with Male Sprague-Dawley rats [1] stood at 100%. The responders at 90 mg/kg in the assay on Mice (setting [3]) was found to be 100%. Turning to `CC[C@H](OC(N)=O)[C@@H](OCOC)c1ccccc1Cl` [Example 9, 1-(2-chlorophenyl)-(S)-1-methoxymethoxybutyl-(S)-2-carbamate], the responders at 46 mg/kg in the assay on Male Sprague-Dawley rats [1] was 33.3%. Besides, the responders at 90 mg/kg in the assay with Mice (setting [3]) worked out at 100%. For the compound `COCO[C@H](c1ccccc1Cl)[C@@H](C)OC(N)=O` [Example 69, 1-(2-chlorophenyl)-(R)-1-methoxymethoxypropyl-(R)-2-carbamate], the responders at 90 mg/kg in the assay with Mice (setting [3]) worked out at 66.6%. For the compound `COCO[C@H](c1cc(Cl)ccc1Cl)[C@@H](C)OC(N)=O` [Example 273, 1-(2,5-dichlorophenyl)-(R)-1-methoxymethoxypropyl-(R)-2-carbamate], the responders at 30 mg/kg in the assay on Mice (setting [3]) was determined as 33.3%. In the case of `C[C@@H](OC(N)=O)[C@H](OC(N)=O)c1ccccc1Cl` [Example 250, 1-(2-chlorophenyl)-(R)-2-carbamoyloxypropyl-(R)-1-carbamate], the “Prevention Protection %” value in the assay on Male Sprague-Dawley rats [2] was “^a60 (16.7%)”. For the same compound, the ED50 in the assay with Mice was 46.3 mg/kg.

In the case of `C[C@@H](OC(N)=O)[C@H](OC(N)=O)c1ccccc1F` [Example 289, 1-(2-fluorophenyl)-(R)-1-carbamoyloxypropyl-(R)-2-carbamate], in the assay on Male Sprague-Dawley rats [2], the “Prevention Protection %” value is reported as “^a80 (16.7%)”. In addition, the ED50 in the assay on Mice was 56.2 mg/kg.

On to `CO[C@@H](c1ccc(F)cc1)[C@H](C)OC(N)=O` [Example 179, 1-(4-fluorophenyl)-(S)-1-methoxypropyl-(S)-2-carbamate], for which the responders at 90 mg/kg in the assay on Mice (setting [3]) is 33.3%. With `CC[C@H](OC(N)=O)[C@@H](OCOC)c1ccccc1I` [Example 28, 1-(2-iodophenyl)-(S)-1-methoxymethoxybutyl-(S)-2-carbamate], in the assay on Male Sprague-Dawley rats [2], the “Prevention Protection %” value was “^a50 (100%)”. The responders at 46 mg/kg with Male Sprague-Dawley rats [1] is 33.3%. Moreover, the responders at 90 mg/kg in the assay on Mice (setting [3]) was 33.3%. For `CO[C@@H](c1ccccc1Cl)[C@H](C)OC(N)=O` [Example 124, 1-(2-chlorophenyl)-(S)-1-methoxypropyl-(S)-2-carbamate], the median effective dose (ED50) with Mice was 15.6 mg/kg.

(Values after patent US9504668B2 (priority 2013, dated 2016).)
